System: 653999-131-R-J2-PDC complex spheroids, growth inhibition
Assay: Anticancer human tumor 653999-131-R-J2-PDC patient-derived lung adenocarcinoma cell line growth inhibition [RAS]
Details: for IC50: curve of first compound; for viability, T/C: stronger effect = lower value; active means viability on the fitted dose curve at most 10% of control; inactive means the rest
Procedure, shortened: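 Multi-cell-type spheroids: tumor cells plus HUVEC endothelial cells and mesenchymal stem cells. RAS-pathway inhibitors were combined with targeted agents, each dosed in half-log steps down from clinical Cmax, or from 10 microM when Cmax was unknown.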

[1] = second compound 0.0316 µM, first compound 0.0316 µM
[2] = second compound 0.0316 µM, first compound 0.1 µM
[3] = second compound 0.0316 µM, first compound 0.316 µM
[4] = second compound 0.0316 µM, first compound 1 µM
[5] = second compound 0.0316 µM, first compound 3.16 µM
[6] = second compound 0.0316 µM, first compound 10 µM
[7] = second compound 0.1 µM, first compound 0.0316 µM
[8] = second compound 0.1 µM, first compound 0.1 µM
[9] = second compound 0.1 µM, first compound 0.316 µM
[10] = second compound 0.1 µM, first compound 1 µM
[11] = second compound 0.1 µM, first compound 3.16 µM
[12] = second compound 0.1 µM, first compound 10 µM
[13] = second compound 0.316 µM, first compound 0.0316 µM
[14] = second compound 0.316 µM, first compound 0.1 µM
[15] = second compound 0.316 µM, first compound 0.316 µM
[16] = second compound 0.316 µM, first compound 1 µM
[17] = second compound 0.316 µM, first compound 3.16 µM
[18] = second compound 0.316 µM, first compound 10 µM
[19] = second compound 1 µM, first compound 0.0316 µM
[20] = second compound 1 µM, first compound 0.1 µM
[21] = second compound 1 µM, first compound 0.316 µM
[22] = second compound 1 µM, first compound 1 µM
[23] = second compound 1 µM, first compound 3.16 µM
[24] = second compound 1 µM, first compound 10 µM
[25] = second compound 3.16 µM, first compound 0.0316 µM
[26] = second compound 3.16 µM, first compound 0.1 µM
[27] = second compound 3.16 µM, first compound 0.316 µM
[28] = second compound 3.16 µM, first compound 1 µM
[29] = second compound 3.16 µM, first compound 3.16 µM
[30] = second compound 3.16 µM, first compound 10 µM
[31] = second compound 10 µM, first compound 0.0316 µM
[32] = second compound 10 µM, first compound 0.1 µM
[33] = second compound 10 µM, first compound 0.316 µM
[34] = second compound 10 µM, first compound 1 µM
[35] = second compound 10 µM, first compound 3.16 µM
[36] = second compound 10 µM, first compound 10 µM
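Further: spheroids exposed to the agents for seven days before the readout.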

CC(C)NCC(C(=O)N1CCN(c2ncnc3c2C(C)CC3O)CC1)c1ccc(Cl)cc1 (centres undefined) + C#Cc1c(F)ccc2cc(O)cc(-c3ncc4c(N5CC6CCC(C5)N6)nc(OCC56CCCN5CC(F)C6)nc4c3F)c12
84.5 nM: IC50 (second compound 1 µM)
593 nM: IC50 (second compound 0.1 µM)
< 31.6 nM: IC50 (second compound 3.16 µM) | IC50 (second compound 10 µM)
inactive: viability, T/C [1] 109% | viability, T/C [2] 84.2% | viability, T/C [3] 72% | viability, T/C [4] 53.6% | viability, T/C [5] 35% | viability, T/C [6] 28.9% | viability, T/C [7] 97.6% | viability, T/C [8] 55.7% | viability, T/C [9] 70.4% | viability, T/C [10] 43.6% | viability, T/C [11] 37.6% | viability, T/C [12] 32.1% | viability, T/C [13] 56.5% | viability, T/C [14] 62.6% | viability, T/C [15] 38.8% | viability, T/C [16] 38.9% | viability, T/C [17] 26.2% | viability, T/C [18] 20.5% | viability, T/C [19] 64.7% | viability, T/C [20] 40.8% | viability, T/C [21] 45% | viability, T/C [22] 21% | viability, T/C [23] 19.4% | viability, T/C [24] 14% | viability, T/C [25] 36.9% | viability, T/C [26] 43.9% | viability, T/C [27] 27.9% | viability, T/C [28] 19% | viability, T/C [29] 12.7% | viability, T/C [31] 23.3% | viability, T/C [32] 23.3% | viability, T/C [33] 22.8% | viability, T/C [34] 14.1% | viability, T/C [35] 9.37%
1220 nM: IC50 (second compound 0.0316 µM)
190 nM: IC50 (second compound 0.316 µM)
active: viability, T/C [30] 9.87% | viability, T/C [36] 5.49%

C[C@@H](NC(=O)c1ncnc(N)c1Cl)c1ncc(C(=O)Nc2cc(C(F)(F)F)c(Cl)cn2)s1 + C#Cc1c(F)ccc2cc(O)cc(-c3ncc4c(N5CC6CCC(C5)N6)nc(OCC56CCCN5CC(F)C6)nc4c3F)c12
inactive: viability, T/C [1] 102% | viability, T/C [2] 109% | viability, T/C [3] 102% | viability, T/C [4] 100% | viability, T/C [5] 100% | viability, T/C [6] 73.5% | viability, T/C [7] 91% | viability, T/C [8] 91.6% | viability, T/C [9] 90% | viability, T/C [10] 78.3% | viability, T/C [11] 71% | viability, T/C [12] 77.2% | viability, T/C [13] 77.2% | viability, T/C [14] 75% | viability, T/C [15] 87.8% | viability, T/C [16] 75% | viability, T/C [17] 88.3% | viability, T/C [18] 69.1% | viability, T/C [19] 44.5% | viability, T/C [20] 68.3% | viability, T/C [21] 72.5% | viability, T/C [22] 44.6% | viability, T/C [23] 60.1% | viability, T/C [24] 54.7% | viability, T/C [25] 40.3% | viability, T/C [26] 39.7% | viability, T/C [27] 37% | viability, T/C [28] 44.9% | viability, T/C [29] 51.5% | viability, T/C [30] 41.8% | viability, T/C [31] 22% | viability, T/C [32] 21.2% | viability, T/C [33] 49.3% | viability, T/C [34] 45.9% | viability, T/C [35] 30.5% | viability, T/C [36] 22%
> 10000 nM: IC50 (second compound 0.0316 µM) | IC50 (second compound 0.1 µM) | IC50 (second compound 0.316 µM) | IC50 (second compound 1 µM)
< 31.6 nM: IC50 (second compound 3.16 µM) | IC50 (second compound 10 µM)
